{"source": "patent US20230181553A1", "about": "“COMPOSITION FOR HAIR IMPROVEMENT” (Dr. Cherry Inc., priority 2020, published 2023)", "key": {"hair cuticle": {"system": "hair cuticle", "assay": "Hair quality evaluation of hair cuticle by scanning electron microscope", "type": "in vivo, human", "from_the_text": "The hair of the group administered with PG (administered twice a month) of Example 3 was collected, and in consideration of the growing rate (15 mm/month) of the hair of the patient, a portion corresponding to a period 2 months to 3 months (about 2.5 months) before the treatment and a portion corresponding to a period 4 months to 5 months (about 4.5 months) after starting the treatment were collected to be hermetically stored respectively in Ziploc(R). Thereafter, hair of a test site was adhesively fixed on a fixing plate with a resin. The resultant was hermetically stored, and on test day, was subjected to carbon fixation, and a state of hair cuticle was observed by an ordinary method with a scanning electron microscope on the same day. As a negative control, hair of the same patient in a portion not treated (untreated in the half side treatment) was used. Then, a portion of the hair newly grown (on the root side) and an existing portion (on the tip side) were compared with each other. A representative example is illustrated in FIG. 2. The same evaluation was performed on a larger number of patients (three patients[…]) (15 mg of PG, administered twice a month, administration 12 times in total, 6 months). The evaluation was performed 20 days after the final administration based on an electron microscope image in accordance with the following rating. The evaluation was performed by 6 doctors. An average of ratings was obtained. 5: Cuticle is aligned, and is not rough at all. 4: Cuticle is aligned than average, but is slightly rough. 3: Cuticle is aligned averagely. 2: Cuticle is rough than average, and is slightly peeled. […] Cuticle is rough as a whole, and is peeled as a whole."}, "CD163": {"system": "CD163", "assay": "Gene expression in human scalp tissue after pioglitazone treatment (qPCR)", "type": "in vivo", "settings": "whole scalp three times once every two months, before vs 6 months after first treatment", "method": "(§1) A human subject was also checked. A suspension of pioglitazone was prepared in the same manner as in Example 2, and the whole amount of the suspension was applied to the head of a human subject. The PG treatment was performed on the whole scalp three times at a frequency of once every two months. A tissue around the test site was collected with a 3 mm punch before the treatment and 2 months after performing the treatment three times (6 months after the first treatment). The collected tissue was halved, and one half was fixed with 10% formalin, and stored under refrigeration. The other half was immersed in RNA Stabilization Solution (RNAlater, Thermo Fisher Scientific, Lithuania), and the resultant was frozen in liquid nitrogen, and stored at -80° C. Thereafter, the gene expression analysis was performed in the same manner as the rat gene expression analysis.\n(§2) A difference (ΔCt), in an expression level of mRNA, between ribosomal protein lateral stalk subunit P0 (Rp1P0) of a housekeeping gene and the target gene (average of Ct obtained from the qPCR reaction of each gene performed three times) was calculated, and in addition, a difference (ΔΔCt) in ΔCt between samples of the subject to be analyzed obtained before and after the treatment and a control (two persons not treated) was calculated. […]"}, "CD68": {"system": "CD68", "assay": "Gene expression in human scalp tissue after pioglitazone treatment (qPCR)", "type": "in vivo", "settings": "whole scalp three times once every two months, before vs 6 months after first treatment", "method": "as §1, §2"}, "white hair": {"system": "white hair", "assay": "Change in white hair (trichogram) after oral pioglitazone", "type": "in vivo, human", "settings": "oral 15 mg once every day for 6 months", "method": "As pioglitazone, a 15 mg pioglitazone tablet “NP” was used. Each patient took one tablet containing 15 mg of pioglitazone around 10 o'clock in the morning once every day. Subjects were four patients ([…]). In each of the patients, lines were extended from both outer canthi toward the head, two points on these lines crossing a line extended between the both ears through the vertex were tattooed with an India ink, and a portion around the marked center was photographed under the same conditions. The patient had no white hair in a specific portion at the start, a temporal portion on the line extending between the both ears was tattooed with an Indian ink, and a portion around the marked center was photographed under the same conditions. Pioglitazone was taken continuously for 6 months, and the same test was performed every two months. For trichogram, a portion around the marked center was photographed (Canon Powder Shot […], Tokyo, Japan), and hair within a circle having a diameter of 11 mm (area: 95 mm^2) around the tattooed portion set as a center in an imaging range was photographed in two directions, and the number was visually counted to obtain an average of the two photographs."}, "[1]": {"settings": "treated side relative to untreated side"}}, "data": [{"smiles": "CCc1ccc(CCOc2ccc(CC3SC(=O)NC3=O)cc2)nc1", "note": "(stereo not shown) [pioglitazone]", "values": [{"measurement": "hair quality rating, Root", "setting": "hair cuticle; Treated Side, rating 1-5 (5: cuticle aligned, not rough at all), average of 6 doctors, three patients, 15 mg PG twice a month, 12 times, 20 days after final administration", "result": 3.7}, {"measurement": "hair quality rating, Tip", "setting": "hair cuticle; Treated Side, rating 1-5, average of 6 doctors, three patients, 15 mg PG twice a month, 12 times, 20 days after final administration", "result": 2.6}, {"measurement": "state of hair cuticle, newly grown portion (root side) vs tip side", "setting": "hair cuticle; treated hair, PG twice a month, representative example FIG. 2", "result": "the hair quality was obviously improved"}, {"measurement": "Degree of Improvement, Root", "setting": "hair cuticle; [1]", "result": 1.12}, {"measurement": "Degree of Improvement, Tip", "setting": "hair cuticle; [1]", "result": 1.0}, {"measurement": "expression of CD163", "setting": "CD163", "result": "found to increase"}, {"measurement": "expression of CD68", "setting": "CD68", "result": "found to increase"}, {"measurement": "decrease in number of white hairs, number before administration assumed 100", "setting": "white hair; n = 3", "result": 23.2, "unit": "%"}, {"measurement": "decrease of white hair, average", "setting": "white hair; n = 3", "result": 12.7, "unit": "hairs/95 mm^2"}, {"measurement": "change in white hair in shaved portion", "setting": "white hair; three patients having white hair before the treatment", "result": "the white hair was decreased"}]}]}
